Laboratory results reported in PMC9727064, “Performance assessment and economic analysis of a human Liver-Chip for predictive toxicology” (Communications Medicine, 2022).
“Also recorded” adds a separate entry of the source. Where two headings read alike, the source gives them in different places.

Legend:
[1] = system: human Liver-Chip (primary human hepatocytes); assay: Liver-Chip albumin production in top channel effluent (ELISA); format: cell-based
Excerpt: (§1) Cycles 1 to 4 tested 6–8 concentrations in duplicate for each of 10–13 drugs. To determine which sampling strategy was optimal for cycles 1 to 4 (16 doses × 1 replicate, 8 × 2, 5 × 3, or 4 × 4), we generated three different “dose-response” synthetic datasets, each distorted by different noise levels (low, medium, or high). For each of these datasets, we performed curve-fitting analyses and calculated the Root Mean Square Error between the “true” and estimated IC50 parameter. […] Some drugs were also repeated across cycles (on different donors or at different concentrations) to ensure experimental robustness. However, to replicate a more typical study design likely to be carried out by scientists in the pharmaceutical industry, we created cycle 5 with 6 drugs, where each was tested in 4 concentrations in triplicate. For each cycle, chips were dosed with drug over 8 days (referred to as Day 0 through Day 7).
(§2) The drug dosing concentrations were determined from the unbound human Cmax of each drug. First, the expected fraction of drug unbound in media with 2% FBS was extrapolated from plasma binding data for each drug. Dosing concentrations were then back calculated such that the unbound fraction in media would reflect relevant multiples of unbound human Cmax (Supplementary Data 1).
(§3) On the first dosing day (Day 0), all chips were imaged using the ECHO microscope. Five hundred microliters of effluent was collected from all four reservoirs of the pod and placed in a labeled 96-well plate. After collection, all the remaining media was carefully aspirated before dosing with 3.8 mL of corresponding dosing solution. Dosing occurred on study days 0, 2, and 4 for chips flowing at 30 µL/h, and on days 0, 1, 2, 3, 4, 5, and 6 for chips flowing at 150 µL/h. Effluent collection occurred on days 1, 3, and 7.
(§4) Top channel outlet effluents were analyzed to quantify albumin and alanine transaminase (ALT) levels on days 1, 3, and 7 using sandwich ELISA kits (Abcam, Albumin ab179887, ALT ab234578) according to vendor-provided protocols. Frozen (−80 °C) effluent samples were thawed overnight at 4 °C prior to assay. The Hamilton Vantage liquid handling platform was used to manage effluent dilutions (1:500 for albumin, neat for ALT), preparation of standard curves, and addition of antibody cocktail. Absorbance at 450 nm was measured using the SynergyNeo Microplate Reader (BioTek).
All statistical analyses were conducted in R[21] (version 4.1.2) and figures were produced using the R package ggplot2[22] (version 3.3.5). The dose-response analysis (Fig. 4) was carried out using the popular drc R package developed by Ritz et al.[23] using the generalized log-logistic dose-response model. The error bars in Figs. 3 and 4, correspond to the standard errors of the mean. The circles in Fig. 3 correspond to the samples used to calculate the corresponding statistics. The analysis of significance in Fig. 3 was performed using paired t-test across different days (same donor) and unpaired t-test across different donors (same day). In Fig. 3 the number of samples used were n = 3 for donor two, and n = 4 for donor three. For both donors, the number of the freshly thawed hepatocyte samples used to estimate the corresponding log2(Fold Change) were n = 4. Finally, the analysis of significance in Fig. 3 was performed using paired t-test.

[2] = system: human Liver-Chip (primary human hepatocytes); assay: Liver-Chip alanine transaminase (ALT) release in top channel effluent (ELISA); format: cell-based
Excerpt: as §1, §2, §3, §4

human Liver-Chip = assay: Liver-Chip DILI prediction: minimum toxic concentration and margin of safety (MOS)-like figure; details: for Chip MOS both donors / Chip MOS donor 1 / Chip MOS donor 2: free IC50 concentration in the assay divided by total concentration of drug in human plasma at Cmax; for Liver-Chip toxicity determination, MOS-like figure against threshold value of 50: not corrected for protein binding, donors one and two;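 for Chip MOS both donors: Toxic concentration is the lowest across albumin IC50 and ALT and morphology endpoints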;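 for Chip MOS donor 1: Toxic concentration is the lowest across albumin IC50 and ALT and morphology endpoints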;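 for Chip MOS donor 2: Toxic concentration is the lowest across albumin IC50 and ALT and morphology endpoints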
Excerpt: Because the fundamental principles of drug action dictate that free (unbound) drug concentrations drive drug effects, we explored an alternative methodology for calculating the MOS-like values by accounting for protein binding using a previously reported approach. Accordingly, we reanalyzed the findings for the 27 drugs in our study by accounting for protein binding.

[3] = cited from earlier work
[4] = cited from earlier work; remark: listed apart in the source
[5] = system: 3D spheroid cultures of primary human hepatocytes; details: cited from earlier work; for Spheroid MOS: 3D hepatic spheroids, previously published data; for Spheroid false negative: Yes/No, also No for drugs not tested in spheroid; for Toxicity detection in 3D hepatic spheroids: threshold 50
[6] = system: clinical drug-induced liver injury; details: clinical DILI severity category 1 to 5; cited from earlier work
[7] = expanded drug list, lowest multiplier causing a 50% reduction in albumin production
[8] = expanded drug list, lowest concentration causing an increase in ALT release, donor 1
[9] = expanded drug list, lowest concentration causing an increase in ALT release, donor 2
[10] = human, total plasma Cmax, ref Xu, J. J. et al. (36)
[11] = concentration causing a 50% reduction in albumin production
[12] = lowest concentration causing an increase in ALT protein, donor 1
[13] = lowest concentration causing an increase in ALT protein, donor 2
[14] = human, total plasma Cmax, ref Vorrink, S. U., Zhou, Y., Ingelman- Sundberg, M. & Lauschke, V.M. (30)

## Cc1cn([C@H]2C=C[C@@H](CO)O2)c(=O)[nH]c1=O [Stavudine]
[1]; [7]
  Albumin IC50 Donor 1: > 60 unbound human Cmax multiplier
  Albumin IC50 Donor 2: 132 unbound human Cmax multiplier
[2]; [8]
  ALT Donor 1: 300 unbound human Cmax multiplier
[2]; [9]
  ALT Donor 2: > 300 unbound human Cmax multiplier
Human Liver-Chip; 18 drugs tested in both donors
  Liver-Chip toxicity determination, protein-binding-corrected MOS-like figure, threshold 375: detection
Human Liver-Chip
  Chip MOS both donors: 107
  Chip MOS donor 1: 247
  Chip MOS donor 2: 107
  Liver-Chip toxicity determination, MOS-like figure against threshold value of 50: not detected; also recorded: false negative
[3]; [10]
  Human Cmax Total: 3.46 µM
[4]; plasma, ref Lau, S.W.J. (65)
  Expected Fraction Unbound in Plasma: 1
[5]
  Spheroid MOS: >144
  Spheroid false negative: Yes
  Toxicity detection in 3D hepatic spheroids: not detected as toxic drugs in spheroids
[6]
  Garside DILI rank: 1

## Cc1c(C)c2c(c(C)c1O)CCC(C)(COc1ccc(CC3SC(=O)NC3=O)cc1)O2 (stereo not shown) [Troglitazone]
[1]; [11]
  Albumin IC50 Donor 1: 24 multiples of the unbound human Cmax
  Albumin IC50 Donor 2: 122 multiples of the unbound human Cmax
[2]; [12]
  ALT Donor 1: 300 multiples of the unbound human Cmax
[2]; [13]
  ALT Donor 2: 300 multiples of the unbound human Cmax
Human Liver-Chip
  Chip MOS both donors: 0.03
  Chip MOS donor 1: 0.03
  Chip MOS donor 2: 0.1
[3]; [10]
  Human Cmax Total: 6.08 µM
[4]; plasma, reference data from the literature, no reference
  Expected Fraction Unbound in Plasma: 0.0011
[5]
  Spheroid MOS: 2.3
  Spheroid false negative: No
[6]
  Garside DILI rank: 1

## Cc1ccc(C(=O)c2cc(O)c(O)c([N+](=O)[O-])c2)cc1 [Tolcapone]
[1]; [11]
  Albumin IC50 Donor 1: 3 multiples of the unbound human Cmax
  Albumin IC50 Donor 2: 39 multiples of the unbound human Cmax
[2]; [12]
  ALT Donor 1: 100 multiples of the unbound human Cmax
[2]; [13]
  ALT Donor 2: 30 multiples of the unbound human Cmax
Human Liver-Chip
  Chip MOS both donors: 0.004
  Chip MOS donor 1: 0.004
  Chip MOS donor 2: 0.05
[3]; human, total plasma Cmax, reference data from the literature, no reference
  Human Cmax Total: 47.6 µM
[4]; plasma, ref Lau, S.W.J. (65)
  Expected Fraction Unbound in Plasma: 0.0012
[5]
  Spheroid MOS: 0.3
  Spheroid false negative: No
[6]
  Garside DILI rank: 1

## CC(c1cc2ccccc2s1)N(O)C(N)=O (stereo not shown) [Zileuton]
[1]; [7]
  Albumin IC50 Donor 1: > 100 unbound human Cmax multiplier
  Albumin IC50 Donor 2: 210 unbound human Cmax multiplier
[2]; [8]
  ALT Donor 1: > 100 unbound human Cmax multiplier
[2]; [9]
  ALT Donor 2: > 300 unbound human Cmax multiplier
Human Liver-Chip
  Chip MOS both donors: 15
  Chip MOS donor 1: >7
  Chip MOS donor 2: 15
[3]; human therapeutic total plasma Cmax from literature, ref Xu, J. J. et al. (36)
  Human Cmax Total: 13.1 µM
[4]
  plasma protein bound: > 93%
[4]; human plasma, ref Scott, L. J. (69)
  Expected Fraction Unbound in Plasma: 0.07
[5]
  Spheroid MOS: >7.7
  Spheroid false negative: Yes
[6]
  Garside DILI rank: 2

## Nc1c2c(nc3ccccc13)CCCC2 [Tacrine]
[1]; Liver-Chip effluent
  Albumin change in words: not associated with any release of ALT or decline in albumin
[2]; Liver-Chip effluent
  ALT change in words: not associated with any release of ALT
[2]; [8]
  ALT Donor 1: > 300 unbound human Cmax multiplier
[2]; [9]
  ALT Donor 2: > 1000 unbound human Cmax multiplier
Human Liver-Chip
  Chip MOS both donors: >12
  Chip MOS donor 1: >12
  Chip MOS donor 2: >12
  Liver-Chip toxicity determination, MOS-like figure against threshold value of 50: not detected
[3]; [10]
  Human Cmax Total: 0.1 µM
[4]; plasma, ref Lau, S.W.J. (65)
  Expected Fraction Unbound in Plasma: 0.25
[5]
  Spheroid MOS: 696
  Spheroid false negative: Yes
  Toxicity detection in 3D hepatic spheroids: not detected as toxic drugs in spheroids
[6]
  Garside DILI rank: 2

## CC(CCc1ccccc1)NCC(O)c1ccc(O)c(C(N)=O)c1 (stereo not shown) [Labetalol]
[1]; [7]
  Albumin IC50 Donor 1: 26 unbound human Cmax multiplier
  Albumin IC50 Donor 2: 40 unbound human Cmax multiplier
[2]; [8]
  ALT Donor 1: > 100 unbound human Cmax multiplier
[2]; [9]
  ALT Donor 2: 100 unbound human Cmax multiplier
Human Liver-Chip
  Chip MOS both donors: 22
  Chip MOS donor 1: 26
  Chip MOS donor 2: 22
  Liver-Chip toxicity determination, MOS-like figure against threshold value of 50: hepatotoxic
[3]; [14]
  Human Cmax Total: 2.68 µM
[4]; plasma, ref Lau, S.W.J. (65)
  Expected Fraction Unbound in Plasma: 0.5
[5]
  Spheroid false negative: Yes
[6]
  Garside DILI rank: 1

## O=C(NC1CCN(CCCCC2(C(=O)NCC(F)(F)F)c3ccccc3-c3ccccc32)CC1)c1ccccc1-c1ccc(C(F)(F)F)cc1 [Lomitapide]
[1]; [7]
  Albumin IC50 Donor 1: 4 unbound human Cmax multiplier
[2]; [8]
  ALT Donor 1: > 1000 unbound human Cmax multiplier
Human Liver-Chip; albumin, ALT and morphology endpoints together
  Hepatotoxicity in the Liver-Chip, in words: highly toxic
Human Liver-Chip
  Chip MOS donor 1: 0
[3]; human, total plasma Cmax, ref Dawson, S., Stahl, Paul, N., Barber, J. & Kenna, J. G. (71)
  Human Cmax Total: 0.0017 µM
[4]; plasma, ref Lau, S.W.J. (65)
  Expected Fraction Unbound in Plasma: 0.002
[5]
  Spheroid false negative: No
[6]
  Garside DILI rank: 3

## O=c1[nH]c(=O)n([C@@H]2O[C@H](CO)[C@@H](O)[C@@H]2F)cc1I [FIRU]
[1]; [11]
  Albumin IC50 Donor 1: >300 multiples of the unbound human Cmax
  Albumin IC50 Donor 2: >300 multiples of the unbound human Cmax
[2]
  ALT Donor 1: >300 multiples of the unbound human Cmax
  ALT Donor 2: >300 multiples of the unbound human Cmax
Human Liver-Chip
  Chip MOS both donors: >108
  Chip MOS donor 1: >108
  Chip MOS donor 2: >108
[3]; [14]
  Human Cmax Total: *0.64µM
[4]; plasma, ref Scott, L. J. (69)
  Expected Fraction Unbound in Plasma: *0.36
[5]
  Spheroid false negative: No
[6]
  Garside DILI rank: 5
